Experimental data as given in patent publication US7619086B2 (Merck & Co., Inc., priority 2004, dated 2009).

Experiments:
[1] = biological target: T1, HIV integrase (recombinant integrase) (Human immunodeficiency virus type 1 group M subtype B, UniProt P04585); test: HIV integrase assay: strand transfer catalyzed by recombinant integrase; type: biochemical; conditions: per WO 02/30930, read-out: IC50, inhibition of strand transfer activity of integrase
T1 construct: Assays for the strand transfer activity of integrase were conducted in accordance with WO 02/30930 for recombinant integrase
Description: Assays for the strand transfer activity of integrase were conducted in accordance with WO 02/30930 for recombinant integrase.
Further description on conducting the assay using preassembled complexes is found in Wolfe, A. L. et al., J. Virol. 1996, 70: 1424-1432, Hazuda et al., J. Virol. 1997, 71: 7005-7011; Hazuda et al., Drug Design and Discovery 1997, 15: 17-24; and Hazuda et al., Science 2000, 287: 646-650.

HIV = test: Assay for inhibition of HIV replication (acute HIV infection of T-lymphoid cells); type: cell-based; conditions: Human immunodeficiency virus 1
Description: Assays for the inhibition of acute HIV infection of T-lymphoid cells were conducted in accordance with Vacca, J. P. et al., Proc. Natl. Acad. Sci. USA 1994, 91: 4096.

| SMILES | IC50 [1] | IC95 (HIV) |
| --- | --- | --- |
| O=C1C2=C(O)C(=O)N(C3CC3)CC2CCN1Cc1ccc(F)c(Cl)c1 (racemic) [Example 18, 2-(3-Chloro-4-fluorobenzyl)-8-hydroxy-6-cyclopropyl-2,3,4,4a,5,6-hexahydro-2,6-naphthyridine-1,7-dione] | ≤ 1 µM | ≤ 10 µM |
| CC[C@@H]1[C@@H]2CCN(Cc3ccc(F)cc3)C(=O)C2=C(O)C(=O)N1C (relative stereo) [Example 6, (Cis-4a,5)-5-Ethyl-2-(4-fluorobenzyl)-8-hydroxy-6-methyl-2,3,4,4a,5,6-hexahydro-2,6-naphthyridine-1,7-dione] | ≤ 1 µM | ≤ 10 µM |
| CC[C@@H]1[C@H]2CCN(Cc3ccc(F)cc3)C(=O)C2=C(O)C(=O)N1C (relative stereo) [Example 7, (Trans-4a,5)-5-Ethyl-2-(4-fluorobenzyl)-8-hydroxy-6-methyl-2,3,4,4a,5,6-hexahydro-2,6-naphthyridine-1,7-dione] | ≤ 1 µM | ≤ 10 µM |
| CN1C(=O)C(O)=C2C(=O)N(Cc3ccc(F)cc3)CCC2C1C(=O)OC(C)(C)C (single isomer, unassigned) [Example 4, 5-(tert-Butyloxycarbonyl)-2-(4-fluorobenzyl)-8-hydroxy-6-methyl-2,3,4,4a,5,6-hexahydro-2,6-naphthyridine-1,7-dione] | ≤ 1 µM | ≤ 10 µM |
| CN1C(=O)C(O)=C2C(=O)N(Cc3ccc(F)cc3)CCC2C1c1ncccn1 (single isomer, unassigned) [first eluting enantiomer of Example 17, 5-(Pyrimidin-2-yl)-2-(4-fluorobenzyl)-8-hydroxy-6-methyl-2,3,4,4a,5,6-hexahydro-2,6-naphthyridine-1,7-dione] | ≤ 1 µM | ≤ 10 µM |
| CN1CC2CCN(Cc3ccc(F)cc3)C(=O)C2=C(O)C1=O (stereo not drawn) [Example 1, 2-(4-Fluorobenzyl)-8-hydroxy-6-methyl-2,3,4,4a,5,6-hexahydro-2,6-naphthyridine-1,7-dione] | ≤ 1 µM | ≤ 10 µM |
| CN1C(=O)C(O)=C2C(=O)N(Cc3ccc(F)cc3)CCC2C1(C)C (stereo not drawn) [Example 2, 2-(4-Fluorobenzyl)-8-hydroxy-5,5,6-trimethyl-2,3,4,4a,5,6-hexahydro-2,6-naphthyridine-1,7-dione] | ≤ 1 µM | ≤ 10 µM |
| CN1CC2(c3ccccc3)CCN(Cc3ccc(F)cc3)C(=O)C2=C(O)C1=O (stereo not drawn) [Example 3, 2-(4-Fluorobenzyl)-8-hydroxy-6-methyl-4-a-phenyl-2,3,4,4a,5,6-hexahydro-2,6-naphthyridine-1,7-dione] | ≤ 1 µM | ≤ 10 µM |
| CCC1NC(=O)C(O)=C2C(=O)N(Cc3ccc(F)cc3)CCC21 (stereo not drawn) [Example 5] | ≤ 1 µM | ≤ 10 µM |
| CC1(C)C2CCN(Cc3ccc(F)cc3)C(=O)C2=C(O)C(=O)N1CC1CC1 (stereo not drawn) [Example 8, 6-(Cyclopropylmethyl)-2-(4-fluorobenzyl)-8-hydroxy-5,5-dimethyl-2,3,4,4a,5,6-hexahydro-2,6-naphthyridine-1,7-dione] | ≤ 1 µM | ≤ 10 µM |
| CN(C)C(=O)C1C2CCN(Cc3ccc(F)cc3)C(=O)C2=C(O)C(=O)N1C (stereo not drawn) [Example 9, 5-(Dimethylaminocarbonyl)-2-(4-fluorobenzyl)-8-hydroxy-6-methyl-2,3,4,4a,5,6-hexahydro-2,6-naphthyridine-1,7-dione] | ≤ 1 µM | ≤ 10 µM |
| CN1C(=O)C(O)=C2C(=O)N(Cc3ccc(F)c(Cl)c3)CCC2C1(C)C (stereo not drawn) [Example 10] | ≤ 1 µM | ≤ 10 µM |
| CN1C(=O)C(O)=C2C(=O)N(Cc3ccc(F)cc3)CCC2C12CCCC2 (stereo not drawn) [Example 11] | ≤ 1 µM | ≤ 10 µM |
| CN1C(=O)C(O)=C2C(=O)N(Cc3ccc(F)c(F)c3)CCC2C1(C)C (stereo not drawn) [Example 12] | ≤ 1 µM | ≤ 10 µM |
| CN1C(=O)C(O)=C2C(=O)N(Cc3ccc(F)cc3)CCC2C12CCC2 (stereo not drawn) [Example 13] | ≤ 1 µM | ≤ 10 µM |
| CC(C)CNC(=O)C1C2CCN(Cc3ccc(F)cc3)C(=O)C2=C(O)C(=O)N1C (stereo not drawn) [Example 14] | ≤ 1 µM | ≤ 10 µM |
| CN1C(=O)C(O)=C2C(=O)N(Cc3ccc(F)cc3)CCC2C1C(=O)NC(C)(C)C (stereo not drawn) [Example 15] | ≤ 1 µM | ≤ 10 µM |
| CN1C(=O)C(O)=C2C(=O)N(Cc3ccc(F)cc3)CCC2C1C(=O)NCc1ccccn1 (stereo not drawn) [Example 16] | ≤ 1 µM | ≤ 10 µM |
